Test results published in patent US20170245538A1, “SOLID DISPERSION OF AMIDE FLAVOR COMPOUNDS” (Firmenich SA, priority 2014, published 2017).

Test: dissolution kinetics in water followed on-line by UV/Vis spectroscopy
Type: physicochemical
Conditions: 20 mg pure compound in 1L milli Q water at 60° C.
Description: The dissolution kinetics of example 4 in water was tested. A final concentration of (E)-3-(3,4-dimethoxyphenyl)-N-(4-methoxyphenethyl)acrylamide of 20 ppm dissolved in water was targeted. Eighty (80) mg of a solid dispersion of (E)-3-(3,4-dimethoxyphenyl)-N-(4-methoxyphenethyl)acrylamide and gum arabic was dispersed in 1L of milli Q water heated at 60° C. The solution was stirred mechanically by the means of a paddle stirrer at 200 rpm. The dissolution process was followed on-line by monitoring the UV signal of dissolved (E)-3-(3,4-dimethoxyphenyl)-N-(4-methoxyphenethyl)acrylamide with UV/Vis spectroscopy using a fiber optic probe from Ocean Optics. The powder was entirely dissolved after 2 minutes. The maximum dissolution rate during the process was 28 ppm/minute.
Comparative example: (E)-3-(3,4-dimethoxyphenyl)-N-(4-methoxyphenethyl)acrylamide pure. A final concentration of (E)-3-(3,4-dimethoxyphenyl)-N-(4-methoxyphenethyl)acrylamide of 20 ppm dissolved in water was targeted. Twenty (20) mg of the pure (E)-3-(3,4-dimethoxyphenyl)-N-(4-methoxyphenethyl)acrylamide were dispersed in 1L of milli Q water heated at 60° C. The dissolution process yielded 50% of the target concentration of 20 ppm (10 ppm) after 78 minutes. The target concentration could not be achieved after 6 hours. The concentration of dissolved (E)-3-(3,4-dimethoxyphenyl)-N-(4-methoxyphenethyl)acrylamide after 6 hours was 15 ppm (75% of target).

time to 50% of the target concentration of 20 ppm (10 ppm): 78 min
concentration of dissolved compound after 6 hours (after 6 hours): 15 ppm
dissolved compound after 6 hours as % of target (after 6 hours, target 20 ppm): 75 % of target
time to achieve the target concentration (20 ppm) (target could not be achieved): > 6 h
SMILES: COc1ccc(CCNC(=O)/C=C/c2ccc(OC)c(OC)c2)cc1 [(E)-3-(3,4-dimethoxyphenyl)-N-(4-methoxyphenethyl)acrylamide]
